Reference: patent US20100099710A1, “SRC FAMILY KINASE INHIBITORS” (priority 2007, published 2010)

Key:
[1] = test system: Collagen induced arthritis; test: Collagen induced arthritis (CIA), mice; format: in vivo; settings: 3 mg/kg p.o.
Description: (§1) Collagen induced arthritis is a commonly used and widely accepted arthritis model. Immunologically, the model is dominated by a Th1 response; it is antigen specific and depends on both the B- and T-cell response. This model is responsive to most therapies effective in rheumatoid arthritis in humans except NSAIDs.
In order to induce arthritis, the mice were immunised intradermally (i.d.) at the base of the tail with 100 μl of CII emulsion (2 mg/ml) in FCA (2 mg/ml of M. tuberculosis). The mice were re-immunised i.d. 21 days later with 100 μl of CII emulsion (1 mg/ml) in FIA. The test compound was administrated once daily from the initiation of treatment to the day before the end of the experiment.
(§2) Starting from 21 days after the induction of CIA, the mice were weighed twice a week and the inflammation of the four paws was graded from 0 to 4: • 0: Normal • 1: Swelling of 1-2 toe joints or swelling of metatarsus/metacarpus without swelling of toe joints. • 2: Swelling of >2 toe joints or swelling of toe joints and metatarsus/metacarpus • 3: Severe swelling of the paw including metatarsus/metacarpus • 4: Very severe swelling of the paw resulting in chapped skin. The animals are euthanised. The sum of the scores from the four paws is reported as the arthritis score for each mouse. The maximum score obtainable is therefore 16.
(§3) The area under curve (AUC) of the arthritis score was calculated for all mice and used as a disease index. The treatment effect (inhibitory effect) of the compounds is calculated as:
(§4) 1−(AUCtreatment group)/(AUCvehicle group)
The medians of the AUC from all groups were compared using the Kruskal-Wallis test. When P<0.05 in the Kruskal-Wallis test, the Mann Whitney test was used to compare the AUCs for individual mice in drug treated groups with the AUC for mice in the control group which were treated with vehicle (significance level P<0.05).

[2] = test system: Collagen induced arthritis; test: Collagen induced arthritis (CIA), rats; format: in vivo; settings: 5 mg/kg p.o.
Excerpt: as §1, §2, §3, §4
Lewis inbred rats (Harlan), 6 females per group, approximately 11 weeks old were immunised intradermally (i.d.) at the base of the tail with 200 μl of CII emulsion (1 mg/ml) in incomplete Freunds adjuvant (FIA). The rats were re-immunised 10 days later with 50 μl of CII emulsion (1 mg/ml) in FIA. From day 12 the inflammation of each paw was graded and calculated as described for the mouse model. The test-compound was administrated orally from day 10 or from day 14. The last day of treatment was the day before the end of the experiment.

[3] = Table 7, first experiment, printed treated from day 10
[4] = Table 7, first experiment, treated from day 10
[5] = Table 8, second experiment, treated from day 10
[6] = Table 8, second experiment, treated from day 14

C[C@]12C=CC(=O)C=C1CC[C@@H]1[C@@H]2[C@@H](O)C[C@@]2(C)[C@H]1CC[C@]2(O)C(=O)CO [Prednisolone]
AUC of arthritis score, Average ([1]; Table 5): 27
Percent of vehicle control (group 1) ([1]; Table 5, vehicle day 10): −84%
AUC of arthritis score, Average ([1]; Table 6): 27
Percent of vehicle control (group 1) ([1]; Table 6, vehicle day 28): −78%
AUC of arthritis score, Average [2, 3]: 9
Percent of vehicle control (group 1) [2, 3]: −74%
AUC of arthritis score, Average [2, 4]: 0.2
Percent of vehicle control (group 1) [2, 4]: −100%
AUC of arthritis score, Average [2, 5]: 0
Percent of vehicle control (group 1) [2, 5]: −−100%
AUC of arthritis score, Average [2, 6]: 8
Percent of vehicle control (group 1) [2, 6]: −78%
